Results on 31 molecules are retold here after patent publication US10106556B2, “Heterocyclic compound” (TAKEDA PHARMACEUTICAL COMPANY LIMITED, priority 2015, dated 2018).

One assay deals with T1, His-hMAGL (recombinant polyhistidine tagged human MAGL protein) (Homo sapiens, UniProt Q99685).
T1 construct: made in house; host or cells: E. coli BL21(DE3)
T1 sequence (Q99685 1-303): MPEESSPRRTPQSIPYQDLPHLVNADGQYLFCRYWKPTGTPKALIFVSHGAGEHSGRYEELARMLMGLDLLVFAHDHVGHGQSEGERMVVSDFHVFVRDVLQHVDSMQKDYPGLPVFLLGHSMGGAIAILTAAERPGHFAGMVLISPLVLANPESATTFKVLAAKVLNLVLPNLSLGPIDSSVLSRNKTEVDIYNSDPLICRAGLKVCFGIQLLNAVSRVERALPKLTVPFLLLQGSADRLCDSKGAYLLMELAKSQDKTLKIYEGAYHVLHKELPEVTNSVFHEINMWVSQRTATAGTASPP
In words: Measurement of MAGL inhibitory activity (arachidonic acid production from 2-arachidonylglycerol, RapidFire-mass spectrometry). In kind it is biochemical. Conditions: MAGL inhibitory rate at 10 μM test compound; 60 min preincubation with His-hMAGL, 2-arachidonylglycerol substrate, 10 min reaction at room temperature. Put shortly: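 Inhibition (%) was derived from arachidonic acid levels relative to enzyme-free and compound-free groups. Product was measured by online C4 solid-phase extraction and triple-quadrupole MS in negative SRM mode, corrected by arachidonic acid-d8 (3 μM in the acetonitrile added). Substrate was 2-arachidonylglycerol; enzyme was His-tagged recombinant human MAGL.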
`Cc1nc(F)ccc1-c1ccc(OCC2CN(C(=O)c3cc4c(cc3F)OCC(=O)N4)C2)c(F)c1` [Example 290, 7-fluoro-6-((3-((2-fluoro-4-(6-fluoro-2-methylpyridin-3-yl)phenoxy)methyl)azetidin-1-yl)carbonyl)-2H-1,4-benzoxazin-3(4H)-one]: the inhibition at 10 µM was determined as 100%. Still for that read-out and setting: in the case of `O=C1COc2cc(F)c(C(=O)N3CC(COc4ccc(N5CC(F)C5)cc4Cl)C3)cc2N1` [Example 291, 6-((3-((2-chloro-4-(3-fluoroazetidin-1-yl)phenoxy)methyl)azetidin-1-yl)carbonyl)-7-fluoro-2H-1,4-benzoxazin-3(4H)-one] it was 100%; in that of `O=C1COc2cc(F)c(C(=O)N3CC(COc4ccc(N5CC(F)C5)cc4F)C3)cc2N1` [Example 292, 7-fluoro-6-((3-((2-fluoro-4-(3-fluoroazetidin-1-yl)phenoxy)methyl)azetidin-1-yl)carbonyl)-2H-1,4-benzoxazin-3(4H)-one], 100%. Consider `CC(Oc1ccc(F)cc1Cl)C1CCN(C(=O)c2cc3c(cc2F)OCC(=O)N3)CC1` (stereo not shown) [Example 293, 6-((4-(1-(2-chloro-4-fluorophenoxy)ethyl)piperidin-1-yl)carbonyl)-7-fluoro-2H-1,4-benzoxazin-3(4H)-one], for which the inhibition at 10 µM was found to be 102%. Same read-out and setting: in the case of `CC(Oc1ccc(F)cc1F)C1CCN(C(=O)c2cc3c(cc2F)OCC(=O)N3)CC1` (stereo not shown) [Example 294, 6-((4-(1-(2,4-difluorophenoxy)ethyl)piperidin-1-yl)carbonyl)-7-fluoro-2H-1,4-benzoxazin-3(4H)-one] it was 99%; in that of `CC(Oc1ccc(F)cc1Cl)C1CN(C(=O)c2cc3c(cc2F)OCC(=O)N3)C1` (stereo not shown) [Example 297, 6-((3-(1-(2-chloro-4-fluorophenoxy)ethyl)azetidin-1-yl)carbonyl)-7-fluoro-2H-1,4-benzoxazin-3(4H)-one], 99%. For the molecule `CC(Oc1ccc(F)cc1F)C1CN(C(=O)c2cc3c(cc2F)OCC(=O)N3)C1` (stereo not shown) [Example 298, 6-((3-(1-(2,4-difluorophenoxy)ethyl)azetidin-1-yl)carbonyl)-7-fluoro-2H-1,4-benzoxazin-3(4H)-one], the inhibition at 10 µM was determined as 99%. In the case of `CC(Oc1ccc2cn[nH]c2c1)C1CN(C(=O)c2cc3c(cc2F)OCC(=O)N3)C1` (stereo not shown) [Example 299, 7-fluoro-6-((3-(1-(1H-indazol-6-yloxy)ethyl)azetidin-1-yl)carbonyl)-2H-1,4-benzoxazin-3(4H)-one], the inhibition at 10 µM came to 100%. `CC(Oc1cccc(F)c1F)C1CN(C(=O)c2cc3c(cc2F)OCC(=O)N3)C1` (stereo not shown) [Example 302, 6-((3-(1-(2,3-difluorophenoxy)ethyl)azetidin-1-yl)carbonyl)-7-fluoro-2H-1,4-benzoxazin-3(4H)-one]: the inhibition at 10 µM was 102%. Turning to `CC(Oc1cc(F)ccc1F)C1CN(C(=O)c2cc3c(cc2F)OCC(=O)N3)C1` (stereo not shown) [Example 303, 6-((3-(1-(2,5-difluorophenoxy)ethyl)azetidin-1-yl)carbonyl)-7-fluoro-2H-1,4-benzoxazin-3(4H)-one], the inhibition at 10 µM was found to be 103%. Same read-out and setting: as for `CC(Oc1ccc(F)c(F)c1)C1CN(C(=O)c2cc3c(cc2F)OCC(=O)N3)C1` (stereo not shown) [Example 304, 6-((3-(1-(3,4-difluorophenoxy)ethyl)azetidin-1-yl)carbonyl)-7-fluoro-2H-1,4-benzoxazin-3(4H)-one], the figure is 99%; as for `CC(Oc1cc(F)cc(F)c1)C1CN(C(=O)c2cc3c(cc2F)OCC(=O)N3)C1` (stereo not shown) [Example 305, 6-((3-(1-(3,5-difluorophenoxy)ethyl)azetidin-1-yl)carbonyl)-7-fluoro-2H-1,4-benzoxazin-3(4H)-one], 100%; as for `CC(Oc1c(F)cccc1F)C1CN(C(=O)c2cc3c(cc2F)OCC(=O)N3)C1` (stereo not shown) [Example 306, 6-((3-(1-(2,6-difluorophenoxy)ethyl)azetidin-1-yl)carbonyl)-7-fluoro-2H-1,4-benzoxazin-3(4H)-one], 100%. On to `CC(C)(Oc1ccc(F)cc1F)C1CN(C(=O)c2cc3c(cc2F)OCC(=O)N3)C1` [Example 308, 6-((3-(2-(2,4-difluorophenoxy)propan-2-yl)azetidin-1-yl)carbonyl)-7-fluoro-2H-1,4-benzoxazin-3 (4H)-one], for which the inhibition at 10 µM is 104%. With `COCC(Oc1ccc(Cl)cc1F)C1CN(C(=O)c2cc3c(cc2F)OCC(=O)N3)C1` (stereo not shown) [Example 309, 6-((3-(1-(4-chloro-2-fluorophenoxy)-2-methoxyethyl)azetidin-1-yl)carbonyl)-7-fluoro-2H-1,4-benzoxazin-3(4H)-one], the inhibition at 10 µM turned out to be 98%.

With `O=C1COc2cc(F)c(C(=O)N3CC(OCc4ccc(F)cc4Cl)C3)cc2N1` [Example 322, 6-((3-((2-chloro-4-fluorobenzyl)oxy)azetidin-1-yl)carbonyl)-7-fluoro-2H-1,4-benzoxazin-3(4H)-one], the inhibition at 10 µM was 101%. For `O=C1COc2ccc(C(=O)N3CC(OCc4ccc(F)cc4Cl)C3)cc2N1` [Example 323, 6-((3-((2-chloro-4-fluorobenzyl)oxy)azetidin-1-yl)carbonyl)-2H-1,4-benzoxazin-3(4H)-one], the inhibition at 10 µM was found to be 99%. As for `O=C1COc2cc(F)c(C(=O)N3CC(OCc4ccc(Cl)cc4Cl)C3)cc2N1` [Example 324, 6-((3-((2,4-dichlorobenyzl)oxy)azetidin-1-yl)carbonyl)-7-fluoro-2H-1,4-benzoxazin-3(4H)-one], the inhibition at 10 µM came out at 102%. The same measure, in the same setting: as for `O=C1COc2ccc(C(=O)N3CC(OCc4ccc(Cl)cc4Cl)C3)cc2N1` [Example 325, 6-((3-((2,4-dichlorobenzyl)oxy)azetidin-1-yl)carbonyl)-2H-1,4-benzoxazin-3(4H)-one], the figure is 101%.

Still in this assay, the particulars now being: MAGL inhibitory rate at 10 μM test compound; 60 min preincubation with His-hMAGL, 2-arachidonylglycerol substrate, 10 min reaction at room temperature; 10 µM.
With `CC(Oc1ccc(F)cc1Cl)C1CCN(C(=O)c2cc3c(cc2F)OCC(=O)N3)CC1` (stereo not shown) [Example 295, 6-((4-(1-(2-chloro-4-fluorophenoxy)ethyl)piperidin-1-yl)carbonyl)-7-fluoro-2H-1,4-benzoxazin-3(4H)-one], the “% inhibition (10 μM)” value is listed as 101%. Turning to `CC(Oc1ccc(F)cc1Cl)C1CCN(C(=O)c2cc3c(cc2F)OCC(=O)N3)CC1` (stereo not shown) [Example 296, 6-((4-(1-(2-chloro-4-fluorophenoxy)ethyl)piperidin-1-yl)carbonyl)-7-fluoro-2H-1,4-benzoxazin-3(4H)-one], the “% inhibition (10 μM)” value is reported as 101%. The same measure, in the same setting: in the case of `CC(Oc1ccc(F)cc1F)C1CN(C(=O)c2cc3c(cc2F)OCC(=O)N3)C1` (stereo not shown) [Example 300, 6-((3-(1-(2,4-difluorophenoxy)ethyl)azetidin-1-yl)carbonyl)-7-fluoro-2H-1,4-benzoxazin-3(4H)-one] it was 102%; in that of `CC(Oc1ccc(F)cc1F)C1CN(C(=O)c2cc3c(cc2F)OCC(=O)N3)C1` (stereo not shown) [Example 301, 6-((3-(1-(2,4-difluorophenoxy)ethyl)azetidin-1-yl)carbonyl)-7-fluoro-2H-1,4-benzoxazin-3(4H)-one], 99%; in that of `CC(Oc1cccc(F)c1F)C1CN(C(=O)c2cc3c(cc2F)OCC(=O)N3)C1` (stereo not shown) [Example 310, 6-((3-(1-(2,3-difluorophenoxy)ethyl)azetidin-1-yl)carbonyl)-7-fluoro-2H-1,4-benzoxazin-3(4H)-one], 99%. Consider `CC(Oc1cccc(F)c1F)C1CN(C(=O)c2cc3c(cc2F)OCC(=O)N3)C1` (stereo not shown) [Example 311, 6-((3-(1-(2,3-difluorophenoxy)ethyl)azetidin-1-yl)carbonyl)-7-fluoro-2H-1,4-benzoxazin-3(4H)-one], for which the “% inhibition (10 μM)” value is reported as 103%. In the case of `CC(Oc1ccc(F)c(F)c1)C1CN(C(=O)c2cc3c(cc2F)OCC(=O)N3)C1` (stereo not shown) [Example 312, 6-((3-(1-(3,4-difluorophenoxy)ethyl)azetidin-1-yl)carbonyl)-7-fluoro-2H-1,4-benzoxazin-3(4H)-one], the “% inhibition (10 μM)” value is listed as 101%. Take `CC(Oc1ccc(F)c(F)c1)C1CN(C(=O)c2cc3c(cc2F)OCC(=O)N3)C1` (stereo not shown) [Example 313, 6-((3-(1-(3,4-difluorophenoxy)ethyl)azetidin-1-yl)carbonyl)-7-fluoro-2H-1,4-benzoxazin-3(4H)-one]: the “% inhibition (10 μM)” value is 103%. The same measure, in the same setting: in the case of `CC(Oc1cc(F)cc(F)c1)C1CN(C(=O)c2cc3c(cc2F)OCC(=O)N3)C1` (stereo not shown) [Example 314, 6-((3-(1-(3,5-difluorophenoxy)ethyl)azetidin-1-yl)carbonyl)-7-fluoro-2H-1,4-benzoxazin-3(4H)-one] it was 98%; in that of `CC(Oc1cc(F)cc(F)c1)C1CN(C(=O)c2cc3c(cc2F)OCC(=O)N3)C1` (stereo not shown) [Example 315, 6-((3-(1-(3,5-difluorophenoxy)ethyl)azetidin-1-yl)carbonyl)-7-fluoro-2H-1,4-benzoxazin-3(4H)-one], 102%. On the same count and under the same terms, in the case of `CC(Oc1cc(F)ccc1F)C1CN(C(=O)c2cc3c(cc2F)OCC(=O)N3)C1` (stereo not shown) [Example 319, 6-((3-(1-(2,5-difluorophenoxy)ethyl)azetidin-1-yl)carbonyl)-7-fluoro-2H-1,4-benzoxazin-3(4H)-one] it was 101%; in that of `CC(Oc1cc(F)ccc1F)C1CN(C(=O)c2cc3c(cc2F)OCC(=O)N3)C1` (stereo not shown) [Example 320, 6-((3-(1-(2,5-difluorophenoxy)ethyl)azetidin-1-yl)carbonyl)-7-fluoro-2H-1,4-benzoxazin-3(4H)-one], 100%.

Broadly, the inhibition is the change of the read-out against control, counted positive when it falls.
